Laboratory results reported in patent publication US11274073B2, “TRPV1 modulator compounds” (ANTALGENICS, S.L., priority 2017, dated 2022).
Values belong to the compound of their own block, whether it stands above or below them.

Tests used:
[1] = molecular target: T1, rat TRPV1 channel (Rattus norvegicus, UniProt O35433); test: Dose response measurements (EC50/IC50), calcium microfluorometry on TRPV1-SH-SY5Y cells; assay type: cell-based; conditions: n=3 in 3 independent experiments; for EC50: TRPV1 activation; for IC50: TRPV1 blockage
T1 construct: expressed in transfected cells; host or cells: SH-SY5Y (human neuroblastoma) stably expressing rat TRPV1, under puromycin selection
Procedure: (§1) The activity of the compounds was determined on TRPV1 expressing cells (TRPV1-SH-SY5Y) by Calcium microfluorometry assay.
(§2) SH-SY5Y cells stably expressing rat TRPV1 channel (SH-SY5Y-TRPV1) were grown in Earle's minimum essential medium (MEM) containing 10% (v/v) of FCS, 1% nonessential amino acids, 2 mM L-glutamine, 100 μg/ml streptomycin, 100 U/ml penicillin, and 0.4 μg/ml puromycin in a humidity-controlled incubator with 5% CO2 and at 37° C. For fluorescence assays, cells expressing TRPV1 channel (TRPV1-SH-SY5Y) were seeded in 96-well plates (Corning Incorporated, Corning, N.Y.) at a cell density of 40,000 cells 2 days before treatment. The day of treatment the medium was replaced with 100 μL of the dye loading solution Fluo-4 NW supplemented with probenecid 2.5 mM. After incubation at 37° C. in a humidified atmosphere of 5% CO2 for 60 minutes, plates were transferred to a fluorescence plate reader (Polastar Omega BMG Labtech). The baseline fluorescence of Fluo-4 dye ([…]) was recorded for 4 cycles. […] The antagonist (10 μM Ruthenium Red for TRPV1) was added for the blockade. The changes in fluorescence intensity were recorded during 10 cycles more.
Normalized responses (%) versus log [μM] were adjusted to a non-linear fit with variable slope, a four-parameter dose-response curve Y=100/(1+10^((LogEC50−X)*HillSlope)) where […] or just dose-response curve Y=100/(1+10^((LogEC50−X))). EC50 are expressed with 95% confident interval followed by r^2 for regression adjustment. All data are expressed as mean±standard error of the mean […]. Each condition was assessed by triplicate (n=3) in 3 independent experiments (N=3).

[2] = molecular target: T1, rat TRPV1 channel; test: Calcium microfluorometry assay on TRPV1-SH-SY5Y cells, single concentration 10 μM; assay type: cell-based; conditions: for TRPV1 activation at 10 μM (% ± SD): compound 10 μM, Fluo-4 NW fluorescence, Cap (10 μM capsaicin) = 100%; for TRPV1 blockage at 10 μM (% ± SD): compound 10 μM before stimulation with 10 μM capsaicin, RR (10 μM Ruthenium Red) = 100%
Procedure: as §1, §2

[3] = tested on: C57-mice; test: CFA-induced paw inflammation model of inflammatory pain, thermal hyperalgesia (paw withdrawal latency); assay type: in vivo; conditions: 24 h after CFA
Procedure: Data are given as mean±SEM n=6. 2-way ANOVA with Bonferroni post hoc test. *P<0.05; **P<0.01, ***P<0.001, […].
One of the compounds with higher potency (Ex-37) was selected to be tested in a model of inflammatory pain. C57-mice (≈30 g) were used for the study. C57BL/6 were obtained from Janvier, France. Complete Freund's adjuvant (CFA) emulsion (1:1 oil/saline, 0.5 mg/ml) was injected into the plantar surface (10 μl) of the right hind paw (Garcia-Martinez et al., 2006). 24 h after CFA injection, compound Ex-37 was administered intravenously (at 1 mg/kg, 3 mg/kg or 10 mg/kg) or intraplantar (at 10 mg/kg, 30 mg/kg or 100 mg/kg)) on the right hind paw. Thermal hyperalgesia was monitored 24 h after CFA injection and up to 2 h after administering the compound with an Ugo Basile Dynamic Plantar Aesthesiometer as reported previously (Garcia-Martinez et al., 2006). In brief, mice were habituated to an apparatus consisting of individual Perspex boxes on an elevated glass table. A mobile radiant heat source was located under the table and focused on the hind paw. Paw withdrawal latencies were defined as the time taken by the mouse to remove its hind paw from the heat source. A cutoff point of 25 s was set to prevent tissue damage.

T1 sequence (O35433 whole entry): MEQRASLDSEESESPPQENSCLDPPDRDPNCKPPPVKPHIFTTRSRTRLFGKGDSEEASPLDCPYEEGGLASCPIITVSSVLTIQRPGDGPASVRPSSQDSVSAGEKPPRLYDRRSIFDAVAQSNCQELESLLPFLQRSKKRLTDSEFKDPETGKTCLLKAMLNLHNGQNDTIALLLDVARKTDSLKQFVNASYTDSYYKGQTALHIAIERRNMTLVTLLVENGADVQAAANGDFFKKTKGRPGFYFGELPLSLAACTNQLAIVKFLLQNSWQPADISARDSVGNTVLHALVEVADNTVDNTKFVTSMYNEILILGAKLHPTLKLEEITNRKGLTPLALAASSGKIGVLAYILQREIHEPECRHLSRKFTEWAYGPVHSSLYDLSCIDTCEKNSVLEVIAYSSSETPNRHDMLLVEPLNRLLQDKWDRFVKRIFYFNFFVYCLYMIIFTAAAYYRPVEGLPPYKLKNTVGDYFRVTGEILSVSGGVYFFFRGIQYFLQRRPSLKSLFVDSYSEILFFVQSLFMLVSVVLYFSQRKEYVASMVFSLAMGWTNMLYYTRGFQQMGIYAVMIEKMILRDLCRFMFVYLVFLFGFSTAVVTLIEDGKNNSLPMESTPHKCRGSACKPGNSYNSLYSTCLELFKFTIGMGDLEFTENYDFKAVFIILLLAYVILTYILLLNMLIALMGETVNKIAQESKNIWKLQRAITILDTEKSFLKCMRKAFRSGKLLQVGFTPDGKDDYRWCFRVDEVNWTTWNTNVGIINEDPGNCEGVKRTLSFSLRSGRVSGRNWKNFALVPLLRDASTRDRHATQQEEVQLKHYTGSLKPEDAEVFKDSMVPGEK

EC50 [1]: 0.11 ± 0.02 µM | TRPV1 activation at 10 μM (% ± SD) [2]: 77.42 ± 5.17%
SMILES: CC(C)=CCC/C(C)=C/C(=O)OCC(=O)NCc1ccc(O)c(O)c1 [Ex-54, (E)-2-((3,4-dihydroxybenzyl)amino)-2-oxoethyl 3,7-dimethylocta-2,6-dienoate]

EC50 [1]: 0.04 ± 0.008 µM | TRPV1 activation at 10 μM (% ± SD) [2]: 79.31 ± 6.41%
SMILES: COc1cc(CNC(=O)COC(=O)CC/C(C)=C/CC/C(C)=C/CC/C=C(\C)CCC=C(C)CCC=C(C)C)ccc1O (stereo in doubt) [Ex-52, (4E,8E,12E,16E)-2-((4-hydroxy-3-methoxybenzyl)-amino)-2-oxoethyl 4,8,13, 17,21-pentamethyldocosa-4,8,12,16,20-pentaenoate]

SMILES: CCCCCCCCCCCC(=O)OCC(=O)NCc1ccc(O)c(OC)c1 [Ex-36, 2-((4-hydroxy-3-methoxy-benzyl)amino)-2-oxoethyl dodecanoate]
EC50 [1]: 0.08 ± 0.03 µM | TRPV1 activation at 10 μM (% ± SD) [2]: 74.80 ± 8.30%

EC50 [1]: 0.28 ± 0.08 µM | TRPV1 activation at 10 μM (% ± SD) [2]: 75.90 ± 2.49%
SMILES: COc1cc(CNC(=O)COC(=O)/C=C(\C)CCC=C(C)C)ccc1O [Ex-32, (E)-2-((4-hydroxy-3-methoxy-benzyl)amino)-2-oxoethyl 3,7-dimethylocta-2,6-dienoate]

IC50 [1]: 6.82 ± 1.38 µM | TRPV1 blockage at 10 μM (% ± SD) [2]: 104.22 ± 12.65%
SMILES: CC(C)=CCC/C(C)=C/C(=O)OCC(=O)NCc1cc(O)c(O)cc1I [Ex-55, (E)-2-((4,5-dihydroxy-2-iodobenzyl)amino)-2-oxoethyl 3,7-dimethylocta-2,6-dienoate]

EC50 [1]: 0.015 ± 0.02 µM | TRPV1 activation at 10 μM (% ± SD) [2]: 83.71 ± 6.00%
SMILES: CC(C)=CCCC(C)=CCC/C(C)=C/CC/C=C(\C)CC/C=C(\C)CCC(=O)OCC(=O)NCc1ccc(O)c(O)c1 (stereo in doubt) [Ex-56, (4E,8E,12E,16E)-2-((3,4-dihydroxybenzyl)amino)-2-oxoethyl 4,8,13,17,21-pentamethyldocosa-4,8,12,16,20-pentaenoate]

TRPV1 activation at 10 μM (% ± SD) [2]: 25.59 ± 4.29%
SMILES: CCCC(=O)OCC(=O)NCc1ccc(O)c(OC)c1 [Ex-16, 2-((4-hydroxy-3-methoxybenzyl)amino)-2-oxoethyl butyrate]

TRPV1 activation at 10 μM (% ± SD) [2]: 60.84 ± 12.80%
SMILES: CCCCCC[C@@H](O)C/C=C\CCCCCCCC(=O)OCC(=O)NCc1ccc(O)c(OC)c1 [Ex-44, (R,Z)-2-((4-hydroxy-3-methoxybenzyl)amino)-2-oxoethyl 12-hydroxyoctadec-9-enoate]

TRPV1 activation at 10 μM (% ± SD) [2]: 35.82 ± 3.48%
SMILES: COc1cc(CNC(=O)COC(=O)CC(C)C)ccc1O [Ex-20, 2-((4-hydroxy-3-methoxy-benzyl)amino)-2-oxoethyl 3-methylbutanoate]

TRPV1 activation at 10 μM (% ± SD) [2]: 75.96 ± 9.86%
SMILES: CCCCCCCCCCCCCCC(=O)OCC(=O)NCc1ccc(O)c(OC)c1 [Ex-38, 2-((4-hydroxy-3-methoxy-benzyl)amino)-2-oxoethyl pentadecanoate]

TRPV1 blockage at 10 μM (% ± SD) [2]: 31.23 ± 8.34%
SMILES: CCCCCCCC(=O)OCC(=O)NCc1cc(OC)c(O)cc1I [Ex-29, 2-((4-hydroxy-2-iodo-5-methoxybenzyl)amino)-2-oxoethyl octanoate]

TRPV1 activation at 10 μM (% ± SD) [2]: 73.32 ± 12.83%
SMILES: CCCCCC(=O)OCC(=O)NCc1ccc(O)c(OC)c1 [Ex-22, 2-((4-hydroxy-3-methoxy-benzyl)amino)-2-oxoethyl hexanoate]

TRPV1 blockage at 10 μM (% ± SD) [2]: 45.68 ± 14.26%
SMILES: CCCCCCCC/C=C\CCCCCCCC(=O)OCC(=O)NCc1cc(OC)c(O)cc1I [Ex-43, 2-((4-hydroxy-2-iodo-5-methoxybenzyl)amino)-2-oxoethyl oleate]

IC50 [1]: 0.86 ± 0.51 µM | TRPV1 blockage at 10 μM (% ± SD) [2]: 43.18 ± 10.07%
SMILES: CCCCCCCCCCCC(=O)OCC(=O)NCc1cc(OC)c(O)cc1I [Ex-37, 2-((4-hydroxy-2-iodo-5-methoxybenzyl)amino)-2-oxoethyl dodecanoate]
antinociceptive effect in the thermal hyperalgesia test, intraplantar ([3]; intraplantar at 10, 30 or 100 mg/kg on the right hind paw, FIG. 2): showed antinociceptive effects | antinociceptive effect in the thermal hyperalgesia test, intravenous ([3]; intravenously at 1, 3 or 10 mg/kg, FIG. 1): showed antinociceptive effects

TRPV1 activation at 10 μM (% ± SD) [2]: 54.74 ± 17.75%
SMILES: CCCCCCCCCCCCCCCCCC(=O)OCC(=O)NCc1ccc(O)c(OC)c1 [Ex-40, 2-((4-hydroxy-3-methoxy-benzyl)amino)-2-oxoethyl stearate]

TRPV1 activation at 10 μM (% ± SD) [2]: 78.48 ± 4.61%
SMILES: CCCCCCCC/C=C\CCCCCCCC(=O)OCC(=O)NCCc1ccc(O)c(O)c1 [Ex-62, 2-((3,4-dihydroxyphenethyl)-amino)-2-oxoethyl oleate]

TRPV1 activation at 10 μM (% ± SD) [2]: 68.45 ± 7.20%
SMILES: CCCCCCCCC(=O)OCC(=O)NCc1ccc(O)c(OC)c1 [Ex-30, 2-((4-hydroxy-3-methoxybenzyl)amino)-2-oxoethyl nonanoate]

TRPV1 blockage at 10 μM (% ± SD) [2]: 21.80 ± 5.41%
SMILES: CCCCCCC(=O)OCC(=O)NCc1cc(OC)c(O)cc1I [Ex-27, 2-((4-hydroxy-2-iodo-5-methoxybenzyl)amino)-2-oxoethyl heptanoate]
